According to US12707555B2, “Low-temperature dielectric barrier discharge devices” (The Trustees of Princeton University, priority 2022, dated 2026):

Legend:
E. coli 10-beta = experiment: Quantitative disinfection of bacteria dried on glass coverslips (CFU count, log reduction); assay type: cell-based; details: 3% H2O2 alone, flex-DBD off; R=0.97
Experimental: (§1) To quantify disinfection, bacteria (E. coli 10-beta, Standard E. coli AMS 198 or OP50-GFP) were inoculated on glass coverslips (25 mm diameter). Four droplets of 5 μl each (20 μl) of the bacterial culture (starting concentration 10^8 CFU/ml) were placed onto each coverslip and allowed to dry for approximately 40 min. The slides with dry bacterial culture were then placed onto the flex-DBD with the inoculated side directly in contact with the discharge. The coverslips were treated for 10, 30, 90, and 270 s. At the end of the treatment time, the treated coverslip was placed in a centrifuge tube with 7.5 ml LB, enough to cover the coverslip. The tubes were vortexed on a medium setting for 20 s to recover the bacteria from the treated surface but not damage the cell membrane. The resulting bacterial suspension was spread on LB-agar plates and incubated for 24 h. Cultures were then counted and the number used to calculate the logarithmic reductions of bacterial concentration. […] Pieces of material were disinfected by soaking for 5 min in a 70% solution of isopropyl alcohol then dried thoroughly for at least 30 min. […] An inoculated glass coverslip was placed on top of the solution with the bacteria in contact with the solution. […] Statistical significance between pairs of treatments was evaluated using repeated measures ANOVA.

[1] = tested on: E. coli AMS 198 (ATCC-11229); experiment: as above; assay type: cell-based; details: 3% H2O2 alone, flex-DBD off; R=0.947
Experimental: as §1

bacterial load = details: cited from earlier work
E. coli = experiment: Disinfection of inoculated coverslips with flex-DBD in conjunction with 3% H2O2 solution (strain not stated at the result); assay type: cell-based; details: H2O2 with only UV radiation from flex-DBD (UV filter); after the first 30 s
Experimental: Pieces of material were disinfected by soaking for 5 min in a 70% solution of isopropyl alcohol then dried thoroughly for at least 30 min. […] An inoculated glass coverslip was placed on top of the solution with the bacteria in contact with the solution. At the end of each treatment, the coverslip and the cloth were dropped into a centrifuge tube with 7.5 ml of LB solution. The same recovery and plating procedure was used in all experiments. […] To block all the output from the plasma except light, a thin film filter transparent down to 190 nm was placed between the DBD and H2O2. […] When possible, ImageJ (1.53c) software was used to count CFUs, otherwise the counting was done visually. […] All the experiments were performed in triplicates of samples and plates. Statistical significance between pairs of treatments was evaluated using repeated measures ANOVA.

OO [H2O2, hydrogen peroxide]
time for 1 log10 reduction, D (E. coli 10-beta): 139±5 s
time for 1 log10 reduction, D [1]: 135±5 s
reduction (bacterial load; H2O2 droplets added into a corona discharge): 6 log10
reduction in the bacterial load (bacterial load; H2O2 vapor added to the plasma effluent): greater than 6 log10
time for 1 log10 reduction, D (E. coli): > 250 s
